Test results taken from ChEMBL document CHEMBL3991601, “The target landscape of clinical kinase drugs” (Science, 2017).
Calls of active or inactive are those of the source.

Experiments:
[1] = biological target: Cyclin-dependent kinase 10 (Homo sapiens, UniProt Q15131)
[2] = biological target: Nucleoside diphosphate kinase B (Homo sapiens, UniProt P22392)
[3] = biological target: Putative nucleoside diphosphate kinase (Homo sapiens, UniProt O60361)
Actin-related protein 3 = Actin-related protein 3 (Homo sapiens, UniProt P61158)
[4] = biological target: Activin receptor type-1-like (Homo sapiens, UniProt P37023)
Activin receptor type-1-like, sequence (P37023 whole entry): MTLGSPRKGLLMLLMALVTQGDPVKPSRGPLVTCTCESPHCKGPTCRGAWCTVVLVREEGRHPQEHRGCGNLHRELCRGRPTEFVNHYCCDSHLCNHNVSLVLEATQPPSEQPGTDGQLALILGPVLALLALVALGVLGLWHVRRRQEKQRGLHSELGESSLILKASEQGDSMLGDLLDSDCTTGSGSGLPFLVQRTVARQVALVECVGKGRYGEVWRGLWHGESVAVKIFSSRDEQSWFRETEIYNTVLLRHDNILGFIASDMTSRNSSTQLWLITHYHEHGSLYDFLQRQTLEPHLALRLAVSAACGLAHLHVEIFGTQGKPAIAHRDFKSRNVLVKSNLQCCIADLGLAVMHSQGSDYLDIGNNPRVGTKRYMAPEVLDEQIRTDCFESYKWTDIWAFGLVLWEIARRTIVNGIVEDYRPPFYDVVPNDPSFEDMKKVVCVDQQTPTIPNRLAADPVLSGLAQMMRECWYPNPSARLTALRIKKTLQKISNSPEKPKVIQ

[5] = biological target: Cyclin-dependent kinase 18 (Homo sapiens, UniProt Q07002)
Cyclin-dependent kinase 18, sequence (Q07002 whole entry): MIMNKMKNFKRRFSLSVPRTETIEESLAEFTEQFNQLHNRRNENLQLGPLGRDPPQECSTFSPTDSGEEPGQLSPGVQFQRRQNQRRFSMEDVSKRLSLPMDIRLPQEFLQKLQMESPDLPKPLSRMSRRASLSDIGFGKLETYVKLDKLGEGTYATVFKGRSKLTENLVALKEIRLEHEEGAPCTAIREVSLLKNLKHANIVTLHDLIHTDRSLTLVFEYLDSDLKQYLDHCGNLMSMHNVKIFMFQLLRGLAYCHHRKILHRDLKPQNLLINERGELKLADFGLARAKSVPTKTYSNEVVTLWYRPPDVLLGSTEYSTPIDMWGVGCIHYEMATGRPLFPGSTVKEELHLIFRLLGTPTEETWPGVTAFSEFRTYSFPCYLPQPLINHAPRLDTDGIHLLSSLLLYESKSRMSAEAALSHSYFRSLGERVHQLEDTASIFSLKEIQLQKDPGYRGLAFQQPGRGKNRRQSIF

[6] = biological target: Dual specificity tyrosine-phosphorylation-regulated kinase 1B (Homo sapiens, UniProt Q9Y463)
[7] = biological target: T1, General transcription and DNA repair factor IIH helicase subunit XPD (Homo sapiens, UniProt P18074)
T1 sequence (P18074 whole entry): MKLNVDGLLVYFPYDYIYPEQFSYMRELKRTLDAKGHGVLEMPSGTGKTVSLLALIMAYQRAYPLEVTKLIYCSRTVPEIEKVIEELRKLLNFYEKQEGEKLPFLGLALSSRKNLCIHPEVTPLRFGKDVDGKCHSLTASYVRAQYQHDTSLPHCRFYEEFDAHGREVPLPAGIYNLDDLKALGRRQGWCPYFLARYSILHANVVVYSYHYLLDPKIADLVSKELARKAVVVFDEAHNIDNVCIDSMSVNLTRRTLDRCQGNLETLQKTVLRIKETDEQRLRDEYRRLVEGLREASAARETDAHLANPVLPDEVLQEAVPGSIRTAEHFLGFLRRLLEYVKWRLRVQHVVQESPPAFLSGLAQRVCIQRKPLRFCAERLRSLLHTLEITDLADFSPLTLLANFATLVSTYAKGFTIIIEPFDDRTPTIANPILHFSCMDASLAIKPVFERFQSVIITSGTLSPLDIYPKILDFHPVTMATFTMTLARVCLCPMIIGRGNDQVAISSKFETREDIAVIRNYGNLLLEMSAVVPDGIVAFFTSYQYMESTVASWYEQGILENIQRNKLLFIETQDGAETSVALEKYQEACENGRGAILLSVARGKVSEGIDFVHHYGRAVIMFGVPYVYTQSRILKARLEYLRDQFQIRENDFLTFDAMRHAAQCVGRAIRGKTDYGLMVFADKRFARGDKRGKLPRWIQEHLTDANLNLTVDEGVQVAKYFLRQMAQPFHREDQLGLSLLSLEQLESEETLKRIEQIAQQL

[8] = biological target: Eukaryotic peptide chain release factor GTP-binding subunit ERF3B (Homo sapiens, UniProt Q8IYD1)
[9] = biological target: Mast/stem cell growth factor receptor Kit (Homo sapiens, UniProt P10721)
Mast/stem cell growth factor receptor Kit, sequence (P10721 whole entry): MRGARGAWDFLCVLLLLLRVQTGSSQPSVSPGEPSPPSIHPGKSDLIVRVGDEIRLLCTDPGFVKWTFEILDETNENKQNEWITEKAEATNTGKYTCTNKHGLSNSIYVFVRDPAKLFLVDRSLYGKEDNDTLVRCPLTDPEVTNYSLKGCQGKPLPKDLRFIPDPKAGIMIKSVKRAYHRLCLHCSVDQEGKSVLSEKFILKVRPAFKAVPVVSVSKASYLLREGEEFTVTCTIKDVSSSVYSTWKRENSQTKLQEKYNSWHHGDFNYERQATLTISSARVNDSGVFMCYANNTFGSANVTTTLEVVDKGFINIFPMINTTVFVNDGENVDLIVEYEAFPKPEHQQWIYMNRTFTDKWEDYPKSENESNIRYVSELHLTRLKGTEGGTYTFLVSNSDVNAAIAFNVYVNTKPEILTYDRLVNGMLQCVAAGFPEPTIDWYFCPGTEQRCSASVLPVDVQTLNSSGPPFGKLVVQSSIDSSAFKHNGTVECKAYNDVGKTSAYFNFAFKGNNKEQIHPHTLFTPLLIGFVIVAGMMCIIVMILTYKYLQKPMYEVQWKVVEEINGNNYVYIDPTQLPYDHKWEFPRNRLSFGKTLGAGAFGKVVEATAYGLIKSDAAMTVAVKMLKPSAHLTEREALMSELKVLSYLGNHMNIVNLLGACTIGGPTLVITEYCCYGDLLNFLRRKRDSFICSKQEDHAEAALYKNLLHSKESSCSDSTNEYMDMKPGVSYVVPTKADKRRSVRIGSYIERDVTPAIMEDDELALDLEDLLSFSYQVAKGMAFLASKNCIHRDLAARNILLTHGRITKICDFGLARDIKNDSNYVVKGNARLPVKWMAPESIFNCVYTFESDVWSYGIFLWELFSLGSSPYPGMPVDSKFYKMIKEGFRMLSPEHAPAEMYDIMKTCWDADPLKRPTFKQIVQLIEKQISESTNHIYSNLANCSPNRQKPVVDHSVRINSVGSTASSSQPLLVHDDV

[10] = biological target: 5'-AMP-activated protein kinase subunit gamma-1 (Homo sapiens, UniProt P54619)
[11] = biological target: 5'-AMP-activated protein kinase subunit gamma-2 (Homo sapiens, UniProt Q9UGJ0)
[12] = biological target: T2, Uncharacterized protein FLJ45252 (Homo sapiens, UniProt Q6ZSR9)
T2 sequence (Q6ZSR9 whole entry): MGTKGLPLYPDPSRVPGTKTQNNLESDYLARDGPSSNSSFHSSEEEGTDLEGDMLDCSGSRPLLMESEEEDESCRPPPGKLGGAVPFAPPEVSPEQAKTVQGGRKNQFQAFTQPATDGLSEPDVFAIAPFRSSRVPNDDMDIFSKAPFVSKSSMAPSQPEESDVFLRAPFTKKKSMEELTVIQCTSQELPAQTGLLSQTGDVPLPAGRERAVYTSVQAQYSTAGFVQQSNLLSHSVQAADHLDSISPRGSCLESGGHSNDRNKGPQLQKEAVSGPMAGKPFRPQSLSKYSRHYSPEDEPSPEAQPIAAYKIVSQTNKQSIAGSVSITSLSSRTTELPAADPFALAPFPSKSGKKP

[13] = biological target: Serine/threonine-protein kinase 38 (Homo sapiens, UniProt Q15208)
Serine/threonine-protein kinase 38, sequence (Q15208 whole entry): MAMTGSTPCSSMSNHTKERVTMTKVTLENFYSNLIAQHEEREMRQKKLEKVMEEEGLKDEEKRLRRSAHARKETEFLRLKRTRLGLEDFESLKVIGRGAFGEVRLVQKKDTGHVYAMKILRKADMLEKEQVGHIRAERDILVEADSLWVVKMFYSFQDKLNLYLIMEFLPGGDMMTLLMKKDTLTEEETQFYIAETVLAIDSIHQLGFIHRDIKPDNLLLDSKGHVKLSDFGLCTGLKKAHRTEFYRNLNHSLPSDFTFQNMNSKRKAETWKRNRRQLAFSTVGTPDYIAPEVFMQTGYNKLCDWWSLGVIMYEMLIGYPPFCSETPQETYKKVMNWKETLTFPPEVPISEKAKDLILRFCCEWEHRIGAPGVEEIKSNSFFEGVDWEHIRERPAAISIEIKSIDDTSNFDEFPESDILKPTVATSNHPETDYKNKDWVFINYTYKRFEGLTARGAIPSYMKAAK

[14] = biological target: ALK tyrosine kinase receptor (Homo sapiens, UniProt Q9UM73); format: subcellular, K-562, COLO 205, SK-N-BE(2) and MV-4-11, Cell lysate; conditions: read-out: Kd apparent
ALK tyrosine kinase receptor, sequence (Q9UM73 whole entry): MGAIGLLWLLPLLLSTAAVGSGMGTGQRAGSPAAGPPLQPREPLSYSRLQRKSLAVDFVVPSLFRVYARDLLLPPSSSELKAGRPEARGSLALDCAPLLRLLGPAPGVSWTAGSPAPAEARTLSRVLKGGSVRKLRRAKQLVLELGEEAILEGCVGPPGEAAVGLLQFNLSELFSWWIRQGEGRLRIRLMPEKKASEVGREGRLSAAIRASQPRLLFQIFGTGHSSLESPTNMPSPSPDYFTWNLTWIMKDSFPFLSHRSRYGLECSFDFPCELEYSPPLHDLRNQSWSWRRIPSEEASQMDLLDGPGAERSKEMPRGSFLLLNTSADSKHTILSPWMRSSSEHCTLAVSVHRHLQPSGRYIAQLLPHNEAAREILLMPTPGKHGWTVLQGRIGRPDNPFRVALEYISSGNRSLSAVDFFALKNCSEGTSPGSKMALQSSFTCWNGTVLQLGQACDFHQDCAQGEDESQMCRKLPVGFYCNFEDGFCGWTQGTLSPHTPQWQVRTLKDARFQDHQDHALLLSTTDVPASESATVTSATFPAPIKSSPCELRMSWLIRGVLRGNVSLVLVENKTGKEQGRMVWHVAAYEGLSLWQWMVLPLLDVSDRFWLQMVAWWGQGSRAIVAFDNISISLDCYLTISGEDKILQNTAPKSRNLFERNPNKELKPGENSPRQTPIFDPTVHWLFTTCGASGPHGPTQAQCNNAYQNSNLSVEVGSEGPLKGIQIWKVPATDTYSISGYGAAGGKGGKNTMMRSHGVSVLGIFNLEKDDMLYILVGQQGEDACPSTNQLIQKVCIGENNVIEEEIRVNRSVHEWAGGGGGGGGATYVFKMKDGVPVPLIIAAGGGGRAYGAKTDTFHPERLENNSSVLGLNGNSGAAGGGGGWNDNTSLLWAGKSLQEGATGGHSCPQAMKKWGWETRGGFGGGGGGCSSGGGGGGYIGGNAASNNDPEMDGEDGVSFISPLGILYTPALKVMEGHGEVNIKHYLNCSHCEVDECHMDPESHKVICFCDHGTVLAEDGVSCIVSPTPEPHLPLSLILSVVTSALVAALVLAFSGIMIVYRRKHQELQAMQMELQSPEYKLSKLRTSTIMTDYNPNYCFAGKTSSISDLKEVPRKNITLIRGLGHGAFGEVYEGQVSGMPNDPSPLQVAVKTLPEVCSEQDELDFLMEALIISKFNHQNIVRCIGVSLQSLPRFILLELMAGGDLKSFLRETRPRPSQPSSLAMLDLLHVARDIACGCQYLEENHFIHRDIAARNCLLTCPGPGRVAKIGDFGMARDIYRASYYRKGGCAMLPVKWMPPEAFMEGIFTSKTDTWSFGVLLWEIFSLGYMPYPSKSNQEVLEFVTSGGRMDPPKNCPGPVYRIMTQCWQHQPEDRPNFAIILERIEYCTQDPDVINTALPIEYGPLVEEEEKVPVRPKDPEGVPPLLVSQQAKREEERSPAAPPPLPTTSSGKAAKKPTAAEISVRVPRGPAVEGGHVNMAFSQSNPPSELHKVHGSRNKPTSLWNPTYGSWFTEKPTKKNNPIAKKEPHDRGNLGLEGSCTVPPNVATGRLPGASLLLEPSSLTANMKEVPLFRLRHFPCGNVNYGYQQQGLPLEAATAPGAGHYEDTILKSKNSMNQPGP

[15] = biological target: Ras-related C3 botulinum toxin substrate 1 (Homo sapiens, UniProt P63000)
[16] = biological target: MAP kinase-activated protein kinase 3 (Homo sapiens, UniProt Q16644)
MAP kinase-activated protein kinase 3, sequence (Q16644 whole entry): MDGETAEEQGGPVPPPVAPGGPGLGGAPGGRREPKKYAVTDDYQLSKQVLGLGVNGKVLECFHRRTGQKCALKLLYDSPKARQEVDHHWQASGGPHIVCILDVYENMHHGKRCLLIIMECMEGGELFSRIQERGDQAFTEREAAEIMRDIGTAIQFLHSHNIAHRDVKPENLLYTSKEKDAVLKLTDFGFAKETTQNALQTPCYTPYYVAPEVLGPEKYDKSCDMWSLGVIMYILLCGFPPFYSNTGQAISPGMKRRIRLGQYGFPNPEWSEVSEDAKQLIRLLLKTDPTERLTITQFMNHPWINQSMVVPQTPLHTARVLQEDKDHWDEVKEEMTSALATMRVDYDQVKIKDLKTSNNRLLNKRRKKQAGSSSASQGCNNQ

[17] = biological target: Cyclin-dependent kinase 9 (Homo sapiens, UniProt P50750)
[18] = biological target: Tyrosine-protein kinase Fgr (Homo sapiens, UniProt P09769)
[19] = biological target: Tyrosine-protein kinase JAK2 (Homo sapiens, UniProt O60674)
Note: in the data inactive means no Kd found up to 30 µM.

Cyclin-dependent kinase 10, sequence (Q15131 whole entry): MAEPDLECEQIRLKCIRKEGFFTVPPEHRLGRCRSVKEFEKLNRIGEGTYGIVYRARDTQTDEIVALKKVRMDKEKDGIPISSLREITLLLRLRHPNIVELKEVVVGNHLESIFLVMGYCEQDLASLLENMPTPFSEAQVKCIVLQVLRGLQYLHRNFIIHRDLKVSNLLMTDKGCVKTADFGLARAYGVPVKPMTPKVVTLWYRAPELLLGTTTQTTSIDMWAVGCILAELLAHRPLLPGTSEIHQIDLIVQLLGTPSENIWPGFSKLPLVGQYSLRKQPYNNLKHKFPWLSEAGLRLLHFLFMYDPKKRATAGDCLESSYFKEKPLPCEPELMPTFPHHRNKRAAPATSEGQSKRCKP
Nucleoside diphosphate kinase B, sequence (P22392 whole entry): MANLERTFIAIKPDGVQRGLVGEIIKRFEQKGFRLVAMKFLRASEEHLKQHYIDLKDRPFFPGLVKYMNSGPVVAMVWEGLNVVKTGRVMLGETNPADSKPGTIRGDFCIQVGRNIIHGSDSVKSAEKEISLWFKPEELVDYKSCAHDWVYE

COc1cc(Nc2ncc3c(n2)-c2ccc(Cl)cc2C(c2c(F)cccc2OC)=NC3)ccc1C(=O)O [ALISERTIB]
Kd [1]: > 30 µM (inactive)
Kd [2]: > 30 µM (inactive)
Kd [3]: > 30 µM (inactive)

NC(=O)Nc1cc(-c2cccc(F)c2)sc1C(=O)N[C@H]1CCCNC1 [AZD-7762]
Kd (Actin-related protein 3): > 30 µM (inactive)
Kd [4]: > 30 µM (inactive)
Kd [1]: > 30 µM (inactive)

COc1c(OCCCN2CCOCC2)ccc2c1N=C(NC(=O)c1cnc(N)nc1)N1CCN=C21 [COPANLISIB]
Kd [5]: > 30 µM (inactive)
Kd [6]: > 30 µM (inactive)
Kd [7]: > 30 µM (inactive)
Kd [8]: > 30 µM (inactive)
Kd [9]: > 30 µM (inactive)
Kd [10]: > 30 µM (inactive)
Kd [11]: > 30 µM (inactive)
Kd [12]: > 30 µM (inactive)
Kd [13]: > 30 µM (inactive)

O=C(Nc1nc2cccc(-c3ccc(CN4CCS(=O)(=O)CC4)cc3)n2n1)C1CC1 [FILGOTINIB]
Kd [14]: > 30 µM (inactive)
Kd [7]: > 30 µM (inactive)
Kd [10]: > 30 µM (inactive)
Kd [11]: > 30 µM (inactive)
Kd [12]: 4.38 µM (active)
Kd [15]: > 30 µM (inactive)

COc1ncc(-c2ccc3nccc(-c4ccnnc4)c3c2)cc1NS(=O)(=O)c1ccc(F)cc1F [OMIPALISIB]
Kd [14]: > 30 µM (inactive)
Kd [9]: > 30 µM (inactive)
Kd [16]: > 30 µM (inactive)
Kd [2]: > 30 µM (inactive)
Kd [3]: > 30 µM (inactive)
Kd [13]: > 30 µM (inactive)

CCCCCCCCCCCCCCCCCCOP(=O)([O-])OC1CC[N+](C)(C)CC1 [PERIFOSINE]
Kd [15]: > 30 µM (inactive)

Cc1nc(Nc2n[nH]c3c2CN(C(=O)N[C@H](CN(C)C)c2ccccc2)C3(C)C)c2sccc2n1 [PF-03758309]
Kd (Actin-related protein 3): > 30 µM (inactive)
Kd [1]: > 30 µM (inactive)
Kd [5]: 0.067 µM (active)
Kd [13]: 0.075 µM

CO[C@H]1C[C@@H]2CC[C@@H](C)[C@@](O)(O2)C(=O)C(=O)N2CCCC[C@H]2C(=O)O[C@H]([C@H](C)C[C@@H]2CC[C@@H](O)[C@H](OC)C2)CC(=O)[C@H](C)/C=C(\C)[C@@H](O)[C@@H](OC)C(=O)[C@H](C)C[C@H](C)/C=C/C=C/C=C/1C [SIROLIMUS]
Kd [4]: > 30 µM (inactive)
Kd [5]: > 30 µM (inactive)
Kd [17]: > 30 µM (inactive)
Kd [6]: > 30 µM (inactive)
Kd [18]: > 30 µM (inactive)
Kd [19]: > 30 µM (inactive)

CO[C@H]1C[C@@H]2CC[C@@H](C)[C@@](O)(O2)C(=O)C(=O)N2CCCC[C@H]2C(=O)O[C@H]([C@H](C)C[C@@H]2CC[C@@H](OC(=O)C(C)(CO)CO)[C@H](OC)C2)CC(=O)[C@H](C)/C=C(\C)[C@@H](O)[C@@H](OC)C(=O)[C@H](C)C[C@H](C)/C=C/C=C/C=C/1C [TEMSIROLIMUS]
Kd [14]: > 30 µM (inactive)
Kd [1]: > 30 µM (inactive)
Kd [17]: > 30 µM (inactive)
Kd [18]: > 30 µM (inactive)
Kd [8]: > 30 µM (inactive)
Kd [19]: > 30 µM (inactive)
Kd [16]: > 30 µM (inactive)

Cc1cc(Nc2ncnc3ccc(NC4=NC(C)(C)CO4)cc23)ccc1Oc1ccn2ncnc2c1 [TUCATINIB]
Kd [14]: > 30 µM (inactive)
Kd [5]: > 30 µM (inactive)
Kd [16]: > 30 µM (inactive)
Kd [15]: > 30 µM (inactive)
